{"source": "patent US20030069189A1", "about": "“Treatment of infarcts” (Millennium Pharmaceuticals, Inc., priority 1997, published 2003)", "system": "middle cerebral artery (MCA) occlusion", "conditions": "rat, 2 h MCA occlusion, 24 h reperfusion, 0.03 mg/kg iv bolus at 30 minutes", "description": "Six male Sprague Dawley rats (300 g) were anesthetized with haloethane and subjected to middle cerebral artery (MCA) occlusion using a nylon filament for 2 h. Subsequently, the filament was removed and reperfusion of the infarcted tissue occurred for 24 hours before the rat was sacrificed.\nStaining of coronal sections (2.0 mm×7-8) with triphenyltetrazolium chloride ([…]) taken throughout the brain were evaluated under blinded conditions using image analysis to determine infarct size.\nThe infarct was also expressed as a percentage of the contralateral (non-infarcted) hemisphere to provide an indication of how much of the ipsilateral (infarcted) hemisphere was actually damaged by the procedure. Because edema is present in the infarcted hemisphere, it is often impossible to directly ascertain the percentage of the ipsilateral hemisphere that has been damaged.\nRats were given iv bolus injections (1.0 mL/kg) of either vehicle (10% PEG 200/saline; n=3) or N-(2-pyrazine)carbonyl-L-phenylalanine-L-leucine boronic acid (0.03 mg/kg; n=3) at 30 minutes, 2 hours, and 6 hours after the start of the occlusion."}
{"smiles": "CC(C)CC(NC(=O)C(Cc1ccccc1)NC(=O)c1cnccn1)B(O)O", "note": "[N-(2-pyrazine)carbonyl-L-phenylalanine-L-leucine boronic acid]", "values": [{"measurement": "Infarct volume decreased on the ipsilateral hemisphere", "setting": "2 hours and 6 hours after start of occlusion, vs vehicle", "value": 62, "unit": "%"}, {"measurement": "Total damage of the hemisphere (infarct as percentage of contralateral hemisphere)", "setting": "2 hours and 6 hours, vehicle 19%", "value": 2, "unit": "%"}]}
